Literature values as cited in publication PMC4138512 (Journal of computer-aided molecular design, 2014).

System: BoNT/A

| SMILES | Inhibition in combination with 2,4-dichlorocinnamic hydroxamate | Type of inhibition of BoNT/A | Inhibition in combination with 2,4-dichlorocinnamic hydroxamate and chicoric acid |
| --- | --- | --- | --- |
| O=C(/C=C/c1ccc(O)c(O)c1)O[C@H](C(=O)O)[C@H](OC(=O)/C=C/c1ccc(O)c(O)c1)C(=O)O [D-chicoric acid] | nonmutually exclusive inhibition | partial inhibition | – |
| COC(=O)c1ccc(O)c2nc3c(C=O)c(O)cc(O)c3nc12 [lomofungin] | – | non-competitive | synergistic inhibition |
